{"source": "paper PMC6501426", "about": "(Clinical Epigenetics, 2019)", "key": {"[1]": {"test_system": "PC-3", "test": "Cell viability, trypan blue exclusion", "assay_type": "cell-based, human", "protocol": "(§1) U-937 (acute myeloid leukemia), RAJI (Burkitt’s lymphoma), PC-3 (prostate cancer), and MDA-MB-231 (breast cancer) cell lines were obtained from the Deutsche Sammlung für Mikroorganismen and Zellkulturen (DSZM, Braunschweig, Germany) and were cultured in RPMI 1640 (Lonza, Verviers, Belgium) complemented with 10% FBS (Lonza, Verviers, Belgium) and 1% antibiotic-antimycotic (Lonza). RPMI1788 (normal B lymphocytes) and KG-1 (acute myeloid leukemia) cell lines were obtained from the American Type Culture Collection (ATCC) and were maintained in RPMI 1640 complemented with 20% FBS and IMDM complemented with 10% FBS, respectively. Cell lines were treated with compounds at the indicated concentrations in the exponential growth phase.\n(§2) Proliferation and viability of U-937, KG-1, RAJI, PC-3, MDA-MB-231, RPMI1788, PBMCs, and PHA_PBMCs were assessed by trypan blue exclusion assays at the indicated time points. Nuclear morphology changes associated with apoptosis and necrosis were evaluated by fluorescence microscopy after Hoechst and propidium iodide (PI) staining as previously described.\n(§3) IC50 values of compounds against cellular viability were determined by using nonlinear regression fitting curves with GraphPad Prism 8 or CalcuSyn software The t test used for statistical analyses was performed with GraphPad Prism 8. All the tests were one-tailed, and a p value < 0.05 was considered statistically significant."}, "[2]": {"test_system": "U-937", "test": "Cell viability, trypan blue exclusion", "assay_type": "cell-based, human", "protocol": "as §1, §2, §3"}, "[3]": {"test_system": "KG-1", "test": "Cell viability, trypan blue exclusion", "assay_type": "cell-based, human", "protocol": "as §1, §2, §3"}, "[4]": {"test_system": "RAJI", "test": "Cell viability, trypan blue exclusion", "assay_type": "cell-based, human", "protocol": "as §1, §2, §3"}, "[5]": {"test_system": "MDA-MB-231", "test": "Cell viability, trypan blue exclusion", "assay_type": "cell-based, human", "protocol": "as §1, §2, §3"}, "[6]": {"test_system": "methylated CMV promoter-driven luciferase reporter in KG-1 cells", "test": "CMV-luc assay in KG-1 cells", "assay_type": "cell-based, human", "conditions": "KG-1 CMV-luc", "protocol": "The assay was carried out as described by Rilova et al.. The KG-1 cell line was stably transfected with the luciferase firefly (Luc^+ from pGL3 by Promega, Madison, WI, USA) reporter gene under the control of a methylated CMV promoter (from pEGFP-N1 by Clontech) and selected for the maintenance of the methylation of CMV and luciferase expression silencing (KG-1 CMV-luc). The stably integrated KG-1 CMV-luc cells are cultivated in RPMI-1640 medium (Lonza, Strasbourg, France), supplemented with 10% FCS (Lonza, Strasbourg, France) and 0.5 mg/mL of geneticin (Sigma-Aldrich, Saint-Quentin Fallavier, France), under 5% CO2, at 37 °C and seeded at 20,000 cells per well in 96-well plates. After 5 or 24 h of incubation in the presence of compounds or the solvent DMSO, the induction of the promoter is measured by quantification of luciferase with the Brite-lite assay system (PerkinElmer, Villebon-sur-Yvette, France) according to the manufacturer’s protocol. The luminescence is measured on an EnVision™ Multilabel Plate Reader (PerkinElmer, Villebon-sur-Yvette, France), and the data are expressed as fold induction compared to DMSO control. The mean of 2–4 experiments and its standard error are reported.\nAfterwards, MC3353 was tested in KG-1 leukemia cells for its ability to reactivate gene expression in a stably integrated luciferase reporter construction under the control of a CMV promoter inhibited by DNA methylation (CMV-luc assay). After 5 or 24 h of incubation in the presence of drugs at the indicated concentrations, the luciferase signal was measured and normalized to the value of the non-treated cells (Table 2). Since the CMV-luc assay is highly compromised when the tested compounds induce cell death, the cytotoxicity of MC3353 against KG-1 cells at 5 and 24 h was determined in parallel. MC3353 was highly toxic for KG-1 cells after 24 h of treatment starting from a concentration of 1 μM (Additional file 1: Table S1 and indicated in stars in Table 2)."}, "[7]": {"test_system": "COL1A2 expression in Saos-2 cells", "test": "Saos-2 osteoblast differentiation, RT-qPCR", "assay_type": "cell-based, human", "conditions": "0.5 and 1 μM, along 3 weeks, osteogenic medium", "protocol": "Four days after seeding, Saos-2 cells were exposed to specific osteogenic medium (IMDM supplemented with 2% FBS, 5 mM β-glycerophosphate, and 50 μg/mL ascorbic acid, Sigma-Aldrich, Milan, Italy) without (control) or with MC3353 (0.5–1 μM) or DAC (0.1–0.5 μM) and maintained in differentiating conditions for up to 21 days. The medium was renewed every 4 days, and the cells were harvested at various time points to collect total RNA and verify bone mineralization. Specific osteoblastic markers were evaluated by quantitative real-time PCR (RT-qPCR) as previously described. The primers or assays (Applied Biosystems, Foster City, CA, USA) used are as follows: GAPDH (forward: 5′-[…]-3′, reverse: 5′-[…]-3′ and probe: 5′-[…]-3′), OCN (forward: 5′-[…]-3′, reverse: 5′-[…]-3′), ALP (Hs01029144_m1), and COL1A2 (Hs01028970_m1). Amplification reactions were performed using a ViiA7™ Real-Time PCR System (Life Technologies, Carlsbad, CA, USA). To visualize bone mineralization (osteoblastic differentiation) after 7–21 days of MC3353 or DAC treatment, the plates were stained with 40 mM Alizarin red stain (ARS, Sigma-Aldrich, Milan, Italy). ARS staining was visualized with an ECLIPSE 90i microscope (Nikon, Minato, Tokyo, Japan) equipped with Plan fluor 10× NA 0.3. Images were acquired with an autocapture setting using a digital color camera (Nikon DS5 MC) and NIS-Elements AR3.10 software (Nikon, Minato, Tokyo, Japan)."}, "[8]": {"test_system": "RPMI1788 cells", "test": "Nuclear morphology analysis (Hoechst/PI)", "assay_type": "cell-based", "conditions": "72 h; starting from 5 μM; normal cells", "protocol": "as §2\nFig. 6 Nuclear morphology analysis in U-937, RAJI, KG-1, and RPMI1788 cells. Cells were treated with increasing doses of MC3353. Upper panels—after 72 h of treatment, the nuclear morphology was analyzed by fluorescence microscopy after Hoechst and PI staining. Pictures are representative of three independent experiments. Lower panels—the results of cell counting are represented as the mean (± SD) of three independent experiments"}}, "data": [{"smiles": "O=C(Nc1ccc(NC(=O)c2ccc(Nc3ccnc4ccccc34)cc2)cc1)OCc1ccccc1", "note": "[MC3353, Benzyl (4-(4-(quinolin-4-ylamino)benzamido)phenyl)carbamate]", "values": [{"measurement": "Selectivity index (IC50 PBMCs/IC50 cell line), PC-3", "setting": "[1]; 48 h", "result": "(9.8)"}, {"measurement": "Selectivity index (IC50 PHA_PBMCs/IC50 cell line), PC-3", "setting": "[1]; 48 h", "result": "(5.1)"}, {"measurement": "Selectivity index (IC50 RPMI1788/IC50 cell line), PC-3", "setting": "[1]; 48 h", "result": "(2.7)"}, {"measurement": "IC50", "setting": "[1]; Homo sapiens, PC-3, 48 h of treatment, read-out: IC50 ± SD, cell viability, PC-3", "result": "900 ± 400", "unit": "nM"}, {"measurement": "Selectivity index (IC50 PBMCs/IC50 cell line), U-937", "setting": "[2]; 48 h", "result": "(24.0)"}, {"measurement": "Selectivity index (IC50 PHA_PBMCs/IC50 cell line), U-937", "setting": "[2]; 48 h", "result": "(12.4)"}, {"measurement": "Selectivity index (IC50 RPMI1788/IC50 cell line), U-937", "setting": "[2]; 48 h", "result": "(6.6)"}, {"measurement": "IC50", "setting": "[2]; Homo sapiens, U-937, 48 h of treatment, read-out: IC50 ± SD, cell viability, U-937", "result": 400, "unit": "nM"}, {"measurement": "Selectivity index (IC50 PBMCs/IC50 cell line), KG-1", "setting": "[3]; 48 h", "result": "(26.2)"}, {"measurement": "Selectivity index (IC50 PHA_PBMCs/IC50 cell line), KG-1", "setting": "[3]; 48 h", "result": "(13.5)"}, {"measurement": "Selectivity index (IC50 RPMI1788/IC50 cell line), KG-1", "setting": "[3]; 48 h", "result": "(7.2)"}, {"measurement": "IC50", "setting": "[3]; Homo sapiens, KG-1, 48 h of treatment, read-out: IC50 ± SD, cell viability, KG-1", "result": 300, "unit": "nM"}, {"measurement": "Selectivity index (IC50 PBMCs/IC50 cell line), RAJI", "setting": "[4]; 48 h", "result": "(23.1)"}, {"measurement": "Selectivity index (IC50 PHA_PBMCs/IC50 cell line), RAJI", "setting": "[4]; 48 h", "result": "(11.9)"}, {"measurement": "Selectivity index (IC50 RPMI1788/IC50 cell line), RAJI", "setting": "[4]; 48 h", "result": "(6.3)"}, {"measurement": "IC50", "setting": "[4]; Homo sapiens, Raji, 48 h of treatment, read-out: IC50 ± SD, cell viability, RAJI", "result": 400, "unit": "nM"}, {"measurement": "Selectivity index (IC50 PBMCs/IC50 cell line), MDA-MB-231", "setting": "[5]; 48 h", "result": "(9.7)"}, {"measurement": "Selectivity index (IC50 PHA_PBMCs/IC50 cell line), MDA-MB-231", "setting": "[5]; 48 h", "result": "(5.0)"}, {"measurement": "Selectivity index (IC50 RPMI1788/IC50 cell line), MDA-MB-231", "setting": "[5]; 48 h", "result": "(2.6)"}, {"measurement": "IC50", "setting": "[5]; Homo sapiens, MDA-MB-231, 48 h of treatment, read-out: IC50 ± SD, cell viability, MDA-MB-231", "result": "900 ± 700", "unit": "nM"}, {"measurement": "Luciferase expression (fold ± SD)", "setting": "[6]; 0.1 μM, 5 h", "result": "1.0 ± 0.05", "unit": "fold"}, {"measurement": "Luciferase expression (fold ± SD)", "setting": "[6]; 0.1 μM, 24 h", "result": "1.1 ± 0.1", "unit": "fold"}, {"measurement": "Luciferase expression (fold ± SD)", "setting": "[6]; 1 μM, 5 h", "result": "5.8 ± 0.9", "unit": "fold"}, {"measurement": "Luciferase expression (fold ± SD)", "setting": "[6]; 1 μM, 24 h", "result": "4.4 ± 3.5", "unit": "fold"}, {"measurement": "Luciferase expression (fold ± SD)", "setting": "[6]; 5 μM, 5 h", "result": "6.7 ± 0.8", "unit": "fold"}, {"measurement": "COL1A2 expression, Saos-2", "setting": "[7]", "result": "dose-dependently decreased COL1A2 expression"}, {"measurement": "cell death modality, RPMI1788", "setting": "[8]", "result": "mixed type of cell death induction, mainly necrosis"}]}]}
